# Results: ChEMBL document CHEMBL1201862, “PubChem BioAssay data set” (2004)
#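 Cells were grown in 96-well plates and exposed to each compound for 48 hours at five concentrations; endpoints were interpolated linearly between bracketing concentrations, or set to the highest concentration if not reached. The concentration for 50% growth inhibition is given as GI50.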 Calls of active or inactive are those of the source. Rule as the data show it: active = GI50 up to about 1.1 µM and inactive = higher.
# How the values were obtained:
# Experiment in all cases: NCI-60 cell line screen, 48 h
# 786-0 = system: 786-0
# A498 = system: A498
# A549 = system: A549
# ACHN = system: ACHN
# BT-549 = system: BT-549
# CAKI-1 = system: CAKI-1
# CCRF-CEM = system: CCRF-CEM
# COLO 205 = system: COLO 205
# DU-145 = system: DU-145
# EKVX = system: EKVX
# HCC 2998 = system: HCC 2998
# HCT-116 = system: HCT-116
# HCT-15 = system: HCT-15
# HL-60 = system: HL-60
# HOP-62 = system: HOP-62
# HT-29 = system: HT-29
# Hs-578T = system: Hs-578T
# IGROV-1 = system: IGROV-1
# K562 = system: K562
# KM12 = system: KM12
# LOX IMVI = system: LOX IMVI
# M14 = system: M14
# MCF7 = system: MCF7
# MDA-MB-231 = system: MDA-MB-231
# MDA-MB-435 = system: MDA-MB-435
# MDA-N = system: MDA-N
# MOLT-4 = system: MOLT-4
# Malme-3M = system: Malme-3M
# NCI-H226 = system: NCI-H226
# NCI-H23 = system: NCI-H23
# NCI-H460 = system: NCI-H460
# NCI-H522 = system: NCI-H522
# NCI/ADR-RES = system: NCI/ADR-RES
# OVCAR-3 = system: OVCAR-3
# OVCAR-4 = system: OVCAR-4
# OVCAR-5 = system: OVCAR-5
# OVCAR-8 = system: OVCAR-8
# PC-3 = system: PC-3
# RPMI-8226 = system: RPMI-8226
# RXF 393 = system: RXF 393
# SF-268 = system: SF-268
# SF-295 = system: SF-295
# SK-MEL-28 = system: SK-MEL-28
# SK-MEL-2 = system: SK-MEL-2
# SK-MEL-5 = system: SK-MEL-5
# SK-OV-3 = system: SK-OV-3
# SN12C = system: SN12C
# SNB-19 = system: SNB-19
# SNB-75 = system: SNB-75
# SR = system: SR
# SW-620 = system: SW-620
# T47D = system: T47D
# TK-10 = system: TK-10
# U-251 = system: U-251
# UACC-257 = system: UACC-257
# UACC-62 = system: UACC-62
# UO-31 = system: UO-31
structure (smiles),measurement,setting,value
O=C(Oc1ccc(OC(Oc2ccccc2)c2ccccc2)cc1)c1ccccc1 (configuration not stated),GI50,786-0,> 31.6 µM (inactive)
same,GI50,A498,18.6 µM (inactive)
same,GI50,A549,21.1 µM (inactive)
same,GI50,ACHN,26.7 µM (inactive)
same,GI50,BT-549,26.5 µM (inactive)
same,GI50,CAKI-1,> 10 µM (inactive)
same,GI50,CCRF-CEM,17.3 µM (inactive)
same,GI50,COLO 205,> 31.6 µM (inactive)
same,GI50,DU-145,> 31.6 µM (inactive)
same,GI50,EKVX,29.7 µM (inactive)
same,GI50,HCC 2998,17.6 µM (inactive)
same,GI50,HCT-116,16.1 µM (inactive)
same,GI50,HCT-15,> 10 µM
same,GI50,HL-60,16.3 µM (inactive)
same,GI50,HOP-62,13.9 µM (inactive)
same,GI50,HT-29,22.9 µM (inactive)
same,GI50,Hs-578T,> 31.6 µM (inactive)
same,GI50,IGROV-1,15.2 µM (inactive)
same,GI50,K562,> 31.6 µM (inactive)
same,GI50,KM12,18.7 µM (inactive)
same,GI50,LOX IMVI,22.1 µM (inactive)
same,GI50,M14,8.38 µM (inactive)
same,GI50,MCF7,29.8 µM (inactive)
same,GI50,MDA-MB-231,28 µM (inactive)
same,GI50,MDA-MB-435,24.6 µM (inactive)
same,GI50,MDA-N,14.4 µM (inactive)
same,GI50,MOLT-4,16 µM (inactive)
same,GI50,Malme-3M,13.2 µM (inactive)
same,GI50,NCI-H226,> 31.6 µM (inactive)
same,GI50,NCI-H23,6.21 µM (inactive)
same,GI50,NCI-H460,> 63.2 µM (inactive)
same,GI50,NCI-H522,49.2 µM (inactive)
same,GI50,NCI/ADR-RES,27.9 µM (inactive)
same,GI50,OVCAR-3,25.4 µM (inactive)
same,GI50,OVCAR-4,15 µM (inactive)
same,GI50,OVCAR-5,> 74.1 µM (inactive)
same,GI50,OVCAR-8,> 31.6 µM (inactive)
same,GI50,PC-3,25.6 µM (inactive)
same,GI50,RPMI-8226,13.2 µM (inactive)
same,GI50,RXF 393,> 92.3 µM (inactive)
same,GI50,SF-268,13 µM (inactive)
same,GI50,SF-295,14.7 µM (inactive)
same,GI50,SK-MEL-28,17.1 µM (inactive)
same,GI50,SK-MEL-2,17.3 µM (inactive)
same,GI50,SK-MEL-5,22.1 µM (inactive)
same,GI50,SK-OV-3,27.2 µM (inactive)
same,GI50,SN12C,28.8 µM (inactive)
same,GI50,SNB-19,> 31.6 µM (inactive)
same,GI50,SNB-75,27.5 µM (inactive)
same,GI50,SR,19.1 µM (inactive)
same,GI50,SW-620,> 31.6 µM (inactive)
same,GI50,T47D,50 µM (inactive)
same,GI50,TK-10,31.3 µM (inactive)
same,GI50,U-251,> 75.7 µM (inactive)
same,GI50,UACC-257,17.9 µM (inactive)
same,GI50,UACC-62,> 31.6 µM (inactive)
same,GI50,UO-31,16 µM (inactive)
